From publication PMC7722097 (ChemMedChem, 2020) come the findings set out here.

Structures are written as SMILES. Entries after “also recorded” stand apart in the source; their conditions may differ.

Assay [1] has as its target T1, BIR3 domain of XIAP (Homo sapiens, UniProt P98170). Kind of assay: Kinetic analysis using the DELFIA assay. The assay is classed as binding.
In assay [2] the target is wt-BIR3 (Lys311) domain of XIAP (Homo sapiens, UniProt P98170). As to the kind of experiment: Denaturation thermal shift, wt BIR3 of XIAP. To be noted: for Thermal shift data ATm XIAP-BIR3: Table 2.
Chain of wt-BIR3 (Lys311) domain of XIAP (P98170 253-347): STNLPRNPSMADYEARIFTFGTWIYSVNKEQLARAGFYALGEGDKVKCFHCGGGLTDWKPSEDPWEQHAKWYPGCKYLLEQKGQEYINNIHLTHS
Assay [3] addresses T1, BIR3 domain of XIAP. Kind of assay: DELFIA displacement assay, XIAP-BIR3. It is filed as binding.
A further assay deals with cIAP2-BIR3 (Homo sapiens, UniProt Q13489). As to the kind of experiment: DELFIA displacement assay, cIAP2-BIR3. It is filed as binding.
Chain of cIAP2-BIR3 (Q13489 244-349): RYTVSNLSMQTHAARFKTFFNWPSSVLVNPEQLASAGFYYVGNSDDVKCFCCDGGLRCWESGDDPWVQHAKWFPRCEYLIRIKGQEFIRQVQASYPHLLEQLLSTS
In a further assay the target is cIAP1-BIR3 (Homo sapiens, UniProt Q13490). As to the kind of experiment: DELFIA displacement assay, cIAP1-BIR3. The assay is classed as binding.
Chain of cIAP1-BIR3 (Q13490 258-363): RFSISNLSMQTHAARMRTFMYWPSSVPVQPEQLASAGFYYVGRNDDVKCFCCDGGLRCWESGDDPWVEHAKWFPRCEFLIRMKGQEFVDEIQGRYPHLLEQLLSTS
Assay [4] concerns the target HA-BIR3 of XIAP-expressing HEK293T cells (Homo sapiens, UniProt P98170). As to the kind of experiment: Immunoblot of HA-BIR3 XIAP-expressing HEK293T cells. It is filed as cell-based. Particulars: 10 μM compound, 6 h, anti-HA antibody. For orientation: Immunoblotting shows a protein as a band on a membrane.

T1 sequence (P98170 253-347): as the sequence (P98170 253-347) above
Chain of HA-BIR3 of XIAP-expressing HEK293T cells (P98170 253-347 limits assumed): as the sequence (P98170 253-347) above

Usually Ki stands for the equilibrium dissociation constant of an inhibitor or competing ligand from its target. The term IC50 denotes the concentration that inhibits the measured activity by half. A high value points to lower potency. As to `CN[C@@H](C)C(=O)N[C@@H](CNC(=O)c1ccc(S(=O)(=O)F)c(OC)c1)C(=O)N1CCC[C@H]1C(=O)N[C@@H]1CCc2c(F)cccc21` [compound 13, 4-(((S)-3-((S)-2-(((R)-4-fluoro-2,3-dihydro-1Hinden-1-yl)carbamoyl)pyrrolidin-1-yl)-2-((S)-2(methylamino)propanamido)-3-oxopropyl)carbamoyl)-2methoxybenzene-1-sulfonyl fluoride], at BIR3 domain of XIAP [1], the affinity, expressed as Ki, was 85 ± 3 nM. Moreover, the “Thermal shift data ATm XIAP-BIR3” value in assay [2] (pre-incubation 30min (top value) at room temperature) turned out to be 27.0 ± 0.2 °C; in assay [2] (pre-incubation 2h (bottom value) at room temperature), 27.2 ± 0.1 °C. Moreover, in assay [2] (approximate values or bounds in running text, incubation 30 min or 2 h), the “ΔTm, BIR3 domain of XIAP, as stated in text or legend” value is greater than 20 °C. Moreover, the IC50 on BIR3 domain of XIAP [3] came out at 15.6 ± 0.8 nM; at cIAP2-BIR3, 492 ± 26 nM; on cIAP1-BIR3, 141 ± 15 nM. The “Selectivity XIAP vs cIAP1/2, in words” value on BIR3 domain of XIAP [3] (from DELFIA IC50 values of Table 2) is reported as “more potent towards XIAP; also recorded: significantly more selective for XIAP compared to cIAP1/2”. The “Covalent adduct formation in cell (band shift)” value in assay [4] was “band shift”. Also, the “Stabilization of HA-BIR3 in cell (western blot band intensity)” value in assay [4] is reported as “stabilized HA-BIR3; also recorded: most intense band”.
Regarding `CN[C@@H](C)C(=O)N[C@@H](CNCc1ccc(S(=O)(=O)F)cc1)C(=O)N1CCC[C@H]1C(=O)N[C@@H]1CCc2c(F)cccc21` [compound 12, 4-((((S)-3-((S)-2-(((R)-4-fluoro-2,3-dihydro-1Hinden-1-yl)carbamoyl)pyrrolidin-1-yl)-2-((S)-2(methylamino)propanamido)-3oxopropyl)amino)methyl)benzene-1-sulfonyl fluoride], the IC50 on cIAP2-BIR3 is 58.5 ± 0.1 nM; at cIAP1-BIR3, 22 ± 4 nM.
